Experiment [1] has as its target EeAChE (AChE from Electrophorus electricus) (Electrophorus electricus, UniProt O42275). Description: biochemical. The following applies: for IC50: Ellman's method, pH 8.0, 25 °C, triplicate, ± SDEV, read-out: Inhibition (IC50) of EeAChE; for selectivity index (SI): based on IC50 values against EeAChE and EfBChE. As for the experimental part:
(§1) The ChE inhibition assays were performed as previously described. The 1,3- and 1,4-chalcone-donepezil hybrids (0.1 nM to 100 μM) were dissolved in sodium phosphate buffer ((100 μL), 0.1 M, pH 8.0). […] All assays were performed in triplicate. The data was plotted as a sigmoidal curve and IC50 values were calculated using SigmaPlot 14.0 (Systat Software, San Jose, CA, USA).

Experiment [2] deals with EfBChE (BChE from Equus ferus) (Equus caballus, UniProt P81908). Briefly: biochemical. The format is biochemical. The following applies: for IC50: Ellman's method, pH 8.0, 25 °C, triplicate, ± SDEV, read-out: Inhibition (IC50) of EfBChE; for inhibition of EfBChE better than that of EeAChE: from IC50 values. As to the method: as §1
Chain of EfBChE (BChE from Equus ferus) (P81908 whole entry): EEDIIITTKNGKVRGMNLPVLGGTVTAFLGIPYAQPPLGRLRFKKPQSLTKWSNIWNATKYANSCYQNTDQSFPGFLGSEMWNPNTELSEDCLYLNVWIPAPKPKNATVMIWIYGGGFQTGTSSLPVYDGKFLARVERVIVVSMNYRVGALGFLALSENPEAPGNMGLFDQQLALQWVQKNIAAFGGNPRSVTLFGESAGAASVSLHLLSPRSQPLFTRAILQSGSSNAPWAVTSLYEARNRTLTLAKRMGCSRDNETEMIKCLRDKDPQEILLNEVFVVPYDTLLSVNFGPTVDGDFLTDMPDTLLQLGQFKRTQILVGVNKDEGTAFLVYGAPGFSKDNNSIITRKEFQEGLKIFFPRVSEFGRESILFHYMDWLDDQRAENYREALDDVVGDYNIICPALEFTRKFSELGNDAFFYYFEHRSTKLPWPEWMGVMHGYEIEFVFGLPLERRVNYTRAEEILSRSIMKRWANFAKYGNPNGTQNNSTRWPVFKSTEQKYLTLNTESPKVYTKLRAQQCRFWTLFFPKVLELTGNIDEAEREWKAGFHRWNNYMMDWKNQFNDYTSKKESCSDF
A general note: DTNB colorimetry detects thiols as they appear.

In a further experiment the target is T1, F40 = Aβ(1–40) fibrils (Homo sapiens, UniProt P05067).
T1 construct: lyophilized NH4OH-treated Aβ(1–40) (cat # A-1157-02); purchased rPeptide (Watkinsville, GA, USA) A-1157-02
T1 sequence (P05067 672-711): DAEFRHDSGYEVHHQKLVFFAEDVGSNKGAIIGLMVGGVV
Description: 3H-PIB binding competition/titration, Aβ(1–40) fibrils. The following applies: compounds at 10 μM (titration 10 to 0.03 μM); 1.2 nM 3H-PIB. As for the experimental part:
(§2) Prior to being transferred to screw-top polypropylene vials and being stored at −75 °C, these 1 mg/mL fibril suspensions were further diluted with an equal volume of the buffer solution.
(§3) The plates were sealed and incubated for 3 h at 22 °C, without shaking, and transferred to a 96-well Millipore Multiscreen HTS Hi Flow FB (GF/B) filter plate, and filtered with a multi-well plate vacuum manifold (Millipore Corporation, Bedford, MA, USA). […] Specific binding of ^3H-PIB was determined by subtracting the non-specific binding determined in the presence of 1 μM BTA-1.
(§4) The titration of compounds with ^3H-PIB bound to Aβ(1–40) and Aβ(1–42) fibrils and AD brain extract (ADPBC) were performed to further determine the competition of our compounds for the ^3H-PIB binding site of the AD brain. The experiments were performed as described in the ^3H-PIB binding assays of Section 3.4.3 with the use of a concentration range of 10 to 0.03 μM for the compounds tested.

Another experiment deals with T2, F42 = Aβ(1–42) fibrils (Homo sapiens, UniProt P05067).
T2 construct: Aβ(1–42) (cat # A-1167-02) purchased from rPeptide; purchased rPeptide (Watkinsville, GA, USA) A-1167-02
T2 sequence (P05067 672-713): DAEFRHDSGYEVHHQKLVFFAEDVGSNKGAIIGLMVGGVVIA
Description: 3H-PIB binding competition/titration, Aβ(1–42) fibrils. As to conditions: compounds at 10 μM (titration 10 to 0.03 μM); 1.2 nM 3H-PIB. As for the experimental part: as §2, §3, §4

Experiment [3] concerns the target T3, N-biotinyl-Aβ(1–42) (bioAβ42) oligomer assembly (Homo sapiens, UniProt P05067).
T3 construct: N-biotinyl Aβ(1–42) (bioAβ42) was purchased from Anaspec; purchased Anaspec (Fremont, CA, USA) AS-23523-05
Briefly: biochemical. As to conditions: for bioAβ42 oligomer assembly inhibition (in words): 1.56 to 50 μM, alone or in 1:1 / 1:1:1 mixtures; for EC50: concentration range 50 to 1.56 μM, duplicate, n = 3 independent experiments, ± SDEV. As to the method: We first examined the effect of the synthesized 1,3- and 1,4-chalcone-donepezil hybrids 15a–15f and 16a–16f on the assembly of N-biotinyl-Aβ(1–42) (bioAβ42) monomers into oligomers. We quantified the assembly of bioAβ42 into soluble oligomers by using an ELISA assay in which the soluble oligomers were captured on NeutrAvidin^TM-coated ELISA plates and detected with streptavidin-horseradish peroxidase and colorimetric readout (Figure 3).
The plates were then stored in their blocked form at 4 °C prior to use for the oligomer assembly and dissociation assays.
The assembly of bioAβ42 into soluble oligomers was quantified with an ELISA assay in which the soluble oligomers were captured with the NeutrAvidin^TM coating the ELISA plates. The bound oligomers were detected with streptavidin-horseradish peroxidase (SA-HRP). […] Below, please find the details of the three steps (Steps 1–3) used for the oligomer assembly assay.
Step 1: Preparation of monomeric bioAβ42. For a low background, it was essential to rigorously pretreat the bioAβ42 peptide to convert (disaggregate) the multimeric species that form upon storage in the solid state, or even frozen in 1,1,1,3,3,3-hexafluoroisopropanol (HFIP) to monomers. The required amount of stock bioAβ42 peptide (0.5 mg dissolved at 1 mg/mL in HFIP) was pipetted into a polypropylene microfuge tube, dried to a thin film under a gentle air or N2 stream, and then disaggregated for 10 min at rt in neat trifluoroacetic acid (TFA). After removal of the TFA by drying with an air or N2 stream, DMSO was added to produce a 2.3 μg/mL (50×) stock solution.
Step 2: Assembly of bioAβ42 oligomers. 2 μL of disaggregated monomeric 50× bioAβ42 peptide in DMSO (prepared in Step 1) was pipetted into the bottom of each well of a polypropylene 96-well plate. […] The 96-well plate was sealed and incubated at rt for 30 min without shaking. The bioAβ42 oligomer assembly was stopped by adding 50 μL of 0.3% Tween 20 v/v in distilled H2O.
Step 3: Measurement of bioAβ42 oligomers. […] The 96-well plate was then sealed and incubated for 2 h while shaking at 150 rpm at rt. […] The plate was sealed and incubated for 1 h while shaking at 150 rpm at rt. The plate was washed as previously described, and 100 μL/well of HRP substrate (i.e., 1 mM:0.07 mM/tetramethylbenzidine:H2O2) in 0.2 M citrate buffer, pH 4.0 was added. The plate was incubated at rt for 5 to 10 min and the reaction was stopped by the addition of 100 μL/well of 1% v/v H2SO4. The absorbance of each well was read at 450 nm with a BioTek HT Synergy plate reader.
The effects of various chalcones, donepezil, donepezil analogue, and 1,3-chalcone-donepezil hybrids were tested for their ability to inhibit the bioAβ42 oligomer assembly and dissociation either alone or in combination with each other. The experiments were performed as described in the biotinyl-Aβ(1–42) (bioAβ42) oligomer assembly and dissociation assays section.

In experiment [4] the test system is ADPBC (Alzheimer's disease PIB binding complex). Briefly: 3H-PIB binding competition/titration, ADPBC. Further details: species or system Human. The following applies: compounds at 10 μM (titration 10 to 0.03 μM); 1.2 nM 3H-PIB. As for the experimental part:
Human AD brain frontal cortical tissue (from the Sanders-Brown Center on Aging Alzheimer’s Disease Center Brain Bank at the University of Kentucky) was processed as follows.
as §3, §4

Setting [5] is: EC50 against bioAβ42 oligomer assembly.

This is an account of results in paper PMC6983213, “Combining Chalcones with Donepezil to Inhibit Both Cholinesterases and Aβ Fibril Assembly” (Molecules, 2019).

Entries after “also recorded” stand apart in the source; their conditions may differ. Where two headings read alike, the source gives them in different places.

Chain of EeAChE (AChE from Electrophorus electricus) (O42275 24-633): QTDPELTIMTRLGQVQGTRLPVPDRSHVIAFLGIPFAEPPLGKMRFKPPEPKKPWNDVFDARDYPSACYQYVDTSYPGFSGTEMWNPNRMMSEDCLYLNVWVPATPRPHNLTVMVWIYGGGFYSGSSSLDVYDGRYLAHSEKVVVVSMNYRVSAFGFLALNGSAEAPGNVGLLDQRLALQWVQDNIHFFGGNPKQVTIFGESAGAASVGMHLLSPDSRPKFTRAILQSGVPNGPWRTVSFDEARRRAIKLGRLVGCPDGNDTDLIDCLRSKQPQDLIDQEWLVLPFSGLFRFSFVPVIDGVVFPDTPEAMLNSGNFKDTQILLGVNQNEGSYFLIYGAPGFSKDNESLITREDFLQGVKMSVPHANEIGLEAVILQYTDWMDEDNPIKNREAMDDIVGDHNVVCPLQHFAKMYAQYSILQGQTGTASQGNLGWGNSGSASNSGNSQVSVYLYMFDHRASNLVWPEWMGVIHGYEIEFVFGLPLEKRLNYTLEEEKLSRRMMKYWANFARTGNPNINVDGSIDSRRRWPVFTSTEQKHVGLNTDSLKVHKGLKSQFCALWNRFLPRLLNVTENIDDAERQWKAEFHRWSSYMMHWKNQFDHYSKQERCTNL
T3 sequence (P05067 672-713): as the sequence (P05067 672-713) above

For orientation: IC50 means the concentration needed to halve the response being measured. Broadly, the EC50 is the midpoint of the concentration-response curve. For the molecule `COc1cc2c(cc1OCCOc1ccc(C(=O)/C=C/c3ccc(N(C)C)cc3)cc1)C(=O)C(CC1CCN(Cc3ccccc3)CC1)C2` (stereo not shown) [16a, (E)-2-((1-Benzylpiperidin-4-Yl)Methyl)-6-(2-(4-(3-(4-(Dimethylamino)Phenyl)Acryloyl)Phenoxy)Ethoxy)-5-Methoxy-2,3-Dihydro-1H-Inden-1-One], in experiment [1], the IC50 came out at 70 ± 10 nM and the “selectivity index (SI)” value is reported as “≈1.4”. The IC50 in experiment [2] is ~100 nM. Besides, the “displacement of 3H-PIB from F40 (in words)” value on F40 = Aβ(1–40) fibrils was “better affinity for F40 and F42 than 16b, 16c, 16d, 16e, and 16f”. Moreover, the “displacement of 3H-PIB from F42 (in words)” value at F42 = Aβ(1–42) fibrils was “better affinity for F40 and F42 than 16b, 16c, 16d, 16e, and 16f”. Besides, in experiment [3], the “bioAβ42 oligomer assembly inhibition (in words)” value is “better inhibition of bioAβ42 oligomer assembly”. Moreover, the EC50 in experiment [3] (setting [5]) was 9370 ± 2100 nM.
As to `COc1cc2c(cc1OCCCCOc1cccc(C(=O)/C=C/c3ccc(N(C)C)cc3)c1)C(=O)C(CC1CCN(Cc3ccccc3)CC1)C2` (stereo not shown) [15b, (E)-2-((1-Benzylpiperidin-4-Yl)Methyl)-6-(4-(3-(3-(4-(Dimethylamino)Phenyl)Acryloyl)Phenoxy)Butoxy)-5-Methoxy-2,3-Dihydro-1H-Inden-1-One], in experiment [1], the IC50 turned out to be 650 ± 140 nM and the “selectivity index (SI)” value is 0.05. Moreover, in experiment [2], the half-maximal inhibitory concentration (IC50) is 30 ± 10 nM and the “inhibition of EfBChE better than that of EeAChE” value is listed as 22 fold. In addition, the “displacement of 3H-PIB from F40 (in words)” value on F40 = Aβ(1–40) fibrils was “better binding to F40, F42, and ADPBC than 15c, 15d, 15e, and 15f”. On F42 = Aβ(1–42) fibrils, the “displacement of 3H-PIB from F42 (in words)” value is “better binding to F40, F42, and ADPBC than 15c, 15d, 15e, and 15f”. The “displacement of 3H-PIB from ADPBC (in words)” value in experiment [4] was “better binding to F40, F42, and ADPBC than 15c, 15d, 15e, and 15f”. In experiment [3], the “bioAβ42 oligomer assembly inhibition (in words)” value was “better inhibition of bioAβ42 oligomer assembly”. Further, the EC50 in experiment [3] (read-out: EC50 against bioAβ42 oligomer assembly) worked out at 4100 ± 170 nM.
Turning to `COc1cc2c(cc1OCCOc1cccc(C(=O)/C=C/c3ccc(N(C)C)cc3)c1)C(=O)C(CC1CCN(Cc3ccccc3)CC1)C2` (stereo not shown) [15a, (E)-2-((1-Benzylpiperidin-4-Yl)Methyl)-6-(2-(3-(3-(4-(Dimethylamino)Phenyl)Acryloyl)Phenoxy)Ethoxy)-5-Methoxy-2,3-Dihydro-1H-Inden-1-One], in experiment [1], the IC50 was found to be 1020 ± 330 nM and the “selectivity index (SI)” value came out at 0.02. In experiment [2], the IC50 is 20 ± 2 nM and the “inhibition of EfBChE better than that of EeAChE” value is 51 fold. Besides, the “displacement of 3H-PIB from F40 (in words)” value at F40 = Aβ(1–40) fibrils was “better binding to F40, F42, and ADPBC than 15c, 15d, 15e, and 15f”. For the same molecule, on F42 = Aβ(1–42) fibrils, the “displacement of 3H-PIB from F42 (in words)” value was “better binding to F40, F42, and ADPBC than 15c, 15d, 15e, and 15f”. Further, the “displacement of 3H-PIB from ADPBC (in words)” value in experiment [4] was “better binding to F40, F42, and ADPBC than 15c, 15d, 15e, and 15f”. Further, the “bioAβ42 oligomer assembly inhibition (in words)” value in experiment [3] was “successful in preventing the self-assembly of bioAβ42; also recorded: better inhibition of bioAβ42 oligomer assembly”. Also, the EC50 in experiment [3] (setting [5]) amounted to 4830 ± 470 nM.
